These results are taken from patent US10457687B2, “Aminoacid derivatives, a process for their preparation and pharmaceutical compositions containing them” (LES LABORATOIRES SERVIER, priority 2015, dated 2019).

Chain of Mcl-1 protein (Q07820 whole entry): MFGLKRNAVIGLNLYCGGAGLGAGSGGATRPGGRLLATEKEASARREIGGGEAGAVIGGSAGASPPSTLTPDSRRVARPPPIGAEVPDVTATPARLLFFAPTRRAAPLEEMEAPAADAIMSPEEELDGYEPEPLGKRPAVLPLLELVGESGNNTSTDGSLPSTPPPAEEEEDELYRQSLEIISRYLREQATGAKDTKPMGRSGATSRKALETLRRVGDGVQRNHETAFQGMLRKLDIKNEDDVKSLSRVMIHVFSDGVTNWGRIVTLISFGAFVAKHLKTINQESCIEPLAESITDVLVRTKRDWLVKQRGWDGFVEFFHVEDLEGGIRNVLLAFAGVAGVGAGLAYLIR

The first test deals with Mcl-1 protein (Homo sapiens, UniProt Q07820). Description: Inhibition of Mcl-1 by the fluorescence polarisation technique (Method 1 or Method 2). It counts as binding. To be noted: fluorescence polarisation, Fluorescein labelled ligand; Method 1 (not underlined) or Method 2 (underlined); read-out: IC50 (μM) Mcl-1 FP. The method, then:
The relative binding potency of each compound was determined via Fluorescence Polarisation (FP).
An 11 point serial dilution of each compound was prepared in DMSO and 2 μl transferred into flat bottomed, low binding, 384-well plate (final DMSO concentration 5%). 38 μl of buffer (10 mM 4-(2-hydroxyethyl)-1-piperazineethanesulfonic acid [HEPES], 150 mM NaCl, 0.05% Tween 20, pH 7.4), containing the Fluorescein labelled ligand (final concentration 1 nM) and Mcl-1 protein (final concentration 5 nM) was then added.
An 11 point serial dilution of each compound was prepared in DMSO and 2 μl transferred into flat bottomed, low binding, 384-well plate (final DMSO concentration 5%). 38 μl of buffer (20 mM Na2HPO4, 1 mM EDTA, 50 mM NaCl, pH 7.4), containing the Fluorescein labelled ligand (final concentration 10 nM) and Mcl-1 protein (final concentration 10 nM) was then added.
A word on the IC50: it is the concentration at which inhibition is half-maximal. As to `CC(O)c1sc2ncnc(N[C@H](Cc3ccccc3)C(=O)O)c2c1-c1cccc2ccccc12` (single isomer, unassigned) [Example 206, N-[6-(1-hydroxyethyl)-5-(naphthalen-1-yl)thieno[2,3-d]pyrimidin-4-yl]-D-phenylalanine], the IC50 came out at 8.84 µM.

Take `CCc1sc2ncnc(NC(Cc3ccccc3OCc3cccc(Cl)c3)C(=O)O)c2c1-c1cccc(Cl)c1C` [Example 149, 2-[(3-chlorobenzyl)oxy]-N-[(5Ra)-5-(3-chloro-2-methylphenyl)-6-ethylthieno[2,3-d]pyrimidin-4-yl]-D-phenylalanine]: the IC50 was determined as 14 µM.

On to `CCc1sc2ncnc(N[C@@H](Cn3cccn3)C(=O)O)c2c1-c1cccc(Cl)c1C` (racemic) [Example 110, N-[5-(3-chloro-2-methylphenyl)-6-ethylthieno[2,3-d]pyrimidin-4-yl]-3-(1H-pyrazol-1-yl)alanine], for which the IC50 stood at 0.839 µM.

With `CCc1sc2ncnc(N[C@H](CC3CC3)C(=O)O)c2c1-c1cccc2ccccc12` [Example 159, 3-cyclopropyl-N-[6-ethyl-5-(naphthalen-1-yl)thieno[2,3-d]pyrimidin-4-yl]-D-alanine], the IC50 was 1.77 µM.

Consider `CCc1sc2ncnc(NC(Cc3ccccc3C(N)=O)C(=O)O)c2c1-c1cccc(Cl)c1C` [Example 134, 2-carbamoyl-N-[(5Sa)-5-(3-chloro-2-methylphenyl)-6-ethylthieno[2,3-d]pyrimidin-4-yl]-D-phenylalanine], for which the IC50 was determined as 0.176 µM.

Turning to `CCc1sc2ncnc(NC(Cc3ccccc3)C(=O)O)c2c1-c1cccc2c1c(Cl)cn2CCN1CCOCC1` [Example 237, N-((5Sa)-5-{3-chloro-1-[2-(morpholin-4-yl)ethyl]-1H-indol-4-yl}-6-ethyl-thieno[2,3-d]pyrimidin-4-yl)-D-phenylalanine], the half-inhibitory concentration (IC50) amounted to 0.569 µM.

`CCc1sc2ncnc(NC(Cc3ccccc3)C(=O)O)c2c1-c1cccc2[nH]ccc12` [Example 74, N-[6-ethyl-(5Ra)-5-(1H-indol-4-yl)thieno[2,3-d]pyrimidin-4-yl]-D-phenylalanine]: the half-maximal inhibitory concentration (IC50) is 0.621 µM.

In the case of `CCc1sc2ncnc(NC(Cc3ccccc3)C(=O)O)c2c1-c1ccc(OCCO)c(Cl)c1C` [Example 56, N-{(5Sa)-5-[3-chloro-4-(2-hydroxyethoxy)-2-methylphenyl]-6-ethylthieno[2,3-d]pyrimidin-4-yl}-D-phenylalanine], the IC50 turned out to be 0.019 µM.

As to `CCc1sc2ncnc(N[C@@H](C(=O)O)c3ccccc3)c2c1-c1cccc2ccccc12` (single isomer, unassigned) [Example 160], the IC50 stood at 11.7 µM.

In the case of `CCc1sc2ncnc(NC(Cc3cccc(F)c3)C(=O)O)c2c1-c1cccc2ccccc12` [Example 179, N-[6-ethyl-(5Sa)-5-(naphthalen-1-yl)thieno[2,3-d]pyrimidin-4-yl]-3-fluoro-D-phenylalanine], the IC50 came to 0.881 µM.

Regarding `CCc1sc2ncnc(NC(Cc3ccccc3)C(=O)O)c2c1-c1ccc(OCCCN(C)C)c(Cl)c1C` [Example 60, N-((5Sa)-5-{3-chloro-4-[3-(dimethylamino)propoxy]-2-methylphenyl}-6-ethylthieno[2,3-d]pyrimidin-4-yl)-D-phenylalanine], the IC50 was determined as 0.092 µM.

`CCc1sc2ncnc(NC(Cc3ccccc3O)C(=O)O)c2c1-c1cccc2ccccc12` [Example 174, N-[6-ethyl-(5Sa)-5-(naphthalen-1-yl)thieno[2,3-d]pyrimidin-4-yl]-2-hydroxy-D-phenylalanine]: the IC50 amounted to 0.466 µM.

As to `CCc1sc2ncnc(N[C@H](Cc3c[nH]cn3)C(=O)O)c2c1-c1cccc2ccccc12` [Example 190, N-[6-ethyl-5-(naphthalen-1-yl)thieno[2,3-d]pyrimidin-4-yl]-D-histidine], the IC50 was found to be 34.6 µM.

As for `COc1ccccc1-c1nccc(COc2ccccc2CC(Nc2ncnc3sc(-c4ccc(F)cc4)c(-c4ccc(OCCN5CCN(C)CC5)c(Cl)c4C)c23)C(=O)O)n1` [Example 7, N-[(5Sa)-5-{3-chloro-2-methyl-4-[2-(4-methylpiperazin-1-yl)ethoxy]phenyl}-6-(4-fluorophenyl)thieno[2,3-d]pyrimidin-4-yl]-2-{[2-(2-methoxyphenyl)pyrimidin-4-yl]methoxy}-D-phenylalanine], the half-inhibitory concentration (IC50) was found to be 0.008 µM.

On to `CCc1sc2ncnc(NC(Cc3ccccc3C(F)(F)F)C(=O)O)c2c1-c1cccc(Cl)c1C` [Example 138, N-[(5Sa)-5-(3-chloro-2-methylphenyl)-6-ethylthieno[2,3-d]pyrimidin-4-yl]-2-(trifluoromethyl)-D-phenylalanine], for which the IC50 was 0.664 µM.

Regarding `CCc1sc2ncnc(NC(Cc3ccccc3)C(=O)O)c2c1-c1cc(Cl)c(OCCN2CCN(C)CC2)c(Cl)c1C` [Example 54, N-((5Sa)-5-{3,5-dichloro-2-methyl-4-[2-(4-methylpiperazin-1-yl)ethoxy]phenyl}-6-ethylthieno[2,3-d]pyrimidin-4-yl)-D-phenylalanine], the half-inhibitory concentration (IC50) came out at 0.541 µM.

As for `CCc1sc2ncnc(NC(Cc3ccccc3)C(=O)O)c2c1-c1cncc2ccccc12` [Example 82, N-[6-ethyl-(5Ra)-5-(isoquinolin-4-yl)thieno[2,3-d]pyrimidin-4-yl]-D-phenylalanine], the IC50 came to 1.11 µM.

Take `CCc1sc2ncnc(NC(Cc3ccccc3F)C(=O)O)c2c1-c1cccc2ccccc12` [Example 181, N-[6-ethyl-(5Sa)-5-(naphthalen-1-yl)thieno[2,3-d]pyrimidin-4-yl]-2-fluoro-D-phenylalanine]: the concentration for half-maximal inhibition (IC50) stood at 0.299 µM.

With `CCc1sc2ncnc(N[C@H](Cc3cccc4ccccc34)C(=O)O)c2c1-c1cccc2ccccc12` (single isomer, unassigned) [Example 187, N-[6-ethyl-5-(naphthalen-1-yl)thieno[2,3-d]pyrimidin-4-yl]-3-naphthalen-1-yl-D-alanine], the IC50 was 1.39 µM.

As to `C=Cc1sc2ncnc(NC(Cc3ccccc3)C(=O)O)c2c1-c1cccc2ccccc12` [Example 103, N-[6-ethenyl-(5Ra)-5-(naphthalen-1-yl)thieno[2,3-d]pyrimidin-4-yl]-D-phenylalanine], the IC50 worked out at 0.715 µM.

For `CCc1sc2ncnc(NC(CCc3ccccc3)C(=O)O)c2c1-c1cccc2ccccc12` [Example 171, (2R)-2-{[6-ethyl-(5Ra)-5-(naphthalen-1-yl)thieno[2,3-d]pyrimidin-4-yl]amino}-4-phenylbutanoic acid], the IC50 amounted to 2.77 µM.

Take `CCc1sc2ncnc(NC(CCc3ccccc3)C(=O)O)c2c1-c1cccc2ccccc12` [Example 170, (2R)-2-{[6-ethyl-(5Sa)-5-(naphthalen-1-yl)thieno[2,3-d]pyrimidin-4-yl]amino}-4-phenylbutanoic acid]: the IC50 was 0.955 µM.

On to `CC(C)c1sc2ncnc(N[C@H](Cc3ccccc3)C(=O)O)c2c1-c1cccc2ccccc12` (single isomer, unassigned) [Example 202, N-[5-(naphthalen-1-yl)-6-(propan-2-yl)thieno[2,3-d]pyrimidin-4-yl]-D-phenylalanine], for which the IC50 was determined as 0.751 µM.

On to `CCc1sc2ncnc(NC(Cc3ccccc3)C(=O)O)c2c1-c1cccc(OC)c1C` [Example 75, N-[6-ethyl-(5Sa)-5-(3-methoxy-2-methylphenyl)thieno[2,3-d]pyrimidin-4-yl]-D-phenylalanine], for which the IC50 worked out at 0.28 µM.

Take `CCCc1sc2ncnc(NC(Cc3ccccc3)C(=O)O)c2c1-c1cccc2ccccc12` [Example 253, N-[(5Ra)-5-(naphthalen-1-yl)-6-propylthieno[2,3-d]pyrimidin-4-yl]-D-phenylalanine]: the 50% inhibitory concentration (IC50) came out at 1.36 µM.

The same test, now with this note: partial inhibitors; @ 10 μM test compound.
Consider `CCc1sc2ncnc(N[C@H](Cc3ccccc3)C(=O)O)c2c1-c1ccc(OCCN2CCN(C)CC2)c(Cl)c1C` [Example 63, N-((5Ra)-5-{3-chloro-2-methyl-4-[2-(4-methylpiperazin-1-yl)ethoxy]phenyl}-6-ethylthieno[2,3-d]pyrimidin-4-yl)-D-phenylalanine], for which the “percentage fluorescence polarisation inhibition, Mcl-1 FP” value came to 12.18% @ 10 μM.

Turning to `CCc1sc2ncnc(N[C@H](Cc3ccccc3Br)C(=O)O)c2c1-c1cccc(Cl)c1C` [Example 139, 2-bromo-N-[(5Ra)-5-(3-chloro-2-methylphenyl)-6-ethylthieno[2,3-d]pyrimidin-4-yl]-D-phenylalanine], the “percentage fluorescence polarisation inhibition, Mcl-1 FP” value was 32.75% @ 10 μM.

The test is the same for the next values; noted with them: partial inhibitors; @ 50 μM test compound.
As for `CCc1sc2ncnc(NC(Cc3ccccc3OCCC3CCCC3)C(=O)O)c2c1-c1cccc(Cl)c1C` [Example 143, N-[(5Ra)-5-(3-chloro-2-methylphenyl)-6-ethylthieno[2,3-d]pyrimidin-4-yl]-2-(2-cyclopentylethoxy)-D-phenylalanine], the “percentage fluorescence polarisation inhibition, Mcl-1 FP” value came out at 68.85% @ 50 μM.

Staying with this test, now noted: partial inhibitors; @ 66.7 μM test compound.
On to `CCc1sc2ncnc(NC(Cc3ccccn3)C(=O)O)c2c1-c1cccc(Cl)c1C` [Example 151, N-[(5Ra)-5-(3-chloro-2-methylphenyl)-6-ethylthieno[2,3-d]pyrimidin-4-yl]-3-pyridin-2-yl-D-alanine], for which the “percentage fluorescence polarisation inhibition, Mcl-1 FP” value came out at 71.3% @ 66.7 μM.

The same test, now with this note: partial inhibitors; @ 200 μM test compound.
`CCc1sc2ncnc(N[C@H](Cc3ccccc3)C(=O)OC)c2c1-c1cccc2ccccc12` [Example 254, methyl N-[6-ethyl-(5Sa)-5-(naphthalen-1-yl)thieno[2,3-d]pyrimidin-4-yl]-D-phenylalaninate]: the “percentage fluorescence polarisation inhibition, Mcl-1 FP” value is 22.08% @ 200 μM.

`CCc1sc2ncnc(NC(Cc3ccccc3)C(=O)OC)c2c1-c1cccc2ccccc12` [Example 255, methyl N-[6-ethyl-(5Ra)-5-(naphthalen-1-yl)thieno[2,3-d]pyrimidin-4-yl]-D-phenylalaninate]: the “percentage fluorescence polarisation inhibition, Mcl-1 FP” value came out at 41.08% @ 200 μM.
